Laboratory results as given in ChEMBL document CHEMBL1667745, “Synthesis and antibacterial evaluation of novel clarithromycin derivatives with C-4″ elongated arylalkyl groups against macrolide-resistant strains” (2011).
Values after ≈ are worked out from the molar mass of the structure shown.

Assays:
Type in all cases: functional
Streptococcus pneumoniae [1] = test: Antimicrobial activity against erythromycin-susceptible Streptococcus pneumoniae ATCC 49619 by broth microdilution method
Streptococcus pneumoniae [2] = test: Antimicrobial activity against erythromycin-resistant Streptococcus pneumoniae A22072 expressing the mef gene by broth microdilution method
Streptococcus pneumoniae [3] = test: Antimicrobial activity against erythromycin-resistant Streptococcus pneumoniae B1 expressing the erm gene by broth microdilution method
Streptococcus pyogenes [4] = test: Antimicrobial activity against erythromycin-resistant Streptococcus pyogenes R2 by broth microdilution method
Staphylococcus aureus [5] = test: Antimicrobial activity against penicillin-susceptible Staphylococcus aureus P1 by broth microdilution method
Streptococcus pyogenes [6] = test: Antimicrobial activity against erythromycin-susceptible Streptococcus pyogenes S2 by broth microdilution method
Streptococcus pneumoniae [7] = test: Antimicrobial activity against erythromycin-resistant Streptococcus pneumoniae AB11 expressing the erm and mef gene by broth microdilution method
Staphylococcus aureus [8] = test: Antimicrobial activity against erythromycin-susceptible Staphylococcus aureus ATCC 25923 by broth microdilution method

| SMILES | MIC (Streptococcus pneumoniae [1]) [µg/mL] | MIC (Streptococcus pneumoniae [2]) [µg/mL] | MIC (Streptococcus pneumoniae [3]) [µg/mL] | MIC (Streptococcus pyogenes [4]) [µg/mL] | MIC (Staphylococcus aureus [5]) [µg/mL] | MIC (Streptococcus pyogenes [6]) [µg/mL] | MIC (Streptococcus pneumoniae [7]) [µg/mL] | MIC (Staphylococcus aureus [8]) [µg/mL] |
| --- | --- | --- | --- | --- | --- | --- | --- | --- |
| CC[C@H]1OC(=O)[C@H](C)[C@@H](O[C@H]2C[C@@](C)(OC)[C@@H](OC(=O)NCCCC(=O)NC(C)C)[C@H](C)O2)[C@H](C)[C@@H](O[C@@H]2O[C@H](C)C[C@H](N(C)C)[C@H]2O)[C@](C)(OC)C[C@@H](C)C(=O)[C@H](C)[C@@H](O)[C@]1(C)O | 0.03 (≈ 0.0327 µM) | 8 (≈ 8.71 µM) | 128 (≈ 139 µM) | 16 (≈ 17.4 µM) | 8 (≈ 8.71 µM) | 0.5 (≈ 0.545 µM) | 128 (≈ 139 µM) | 0.25 (≈ 0.272 µM) |
| CCCNC(=O)CCCNC(=O)O[C@H]1[C@H](C)O[C@@H](O[C@H]2[C@H](C)[C@@H](O[C@@H]3O[C@H](C)C[C@H](N(C)C)[C@H]3O)[C@](C)(OC)C[C@@H](C)C(=O)[C@H](C)[C@@H](O)[C@](C)(O)[C@@H](CC)OC(=O)[C@@H]2C)C[C@@]1(C)OC | 0.03 (≈ 0.0327 µM) | 4 (≈ 4.36 µM) | 128 (≈ 139 µM) | 32 (≈ 34.9 µM) | 32 (≈ 34.9 µM) | 1 (≈ 1.09 µM) | 128 (≈ 139 µM) | 0.25 (≈ 0.272 µM) |
| CCCCNC(=O)CCCNC(=O)O[C@H]1[C@H](C)O[C@@H](O[C@H]2[C@H](C)[C@@H](O[C@@H]3O[C@H](C)C[C@H](N(C)C)[C@H]3O)[C@](C)(OC)C[C@@H](C)C(=O)[C@H](C)[C@@H](O)[C@](C)(O)[C@@H](CC)OC(=O)[C@@H]2C)C[C@@]1(C)OC | 0.03 (≈ 0.0322 µM) | 8 (≈ 8.58 µM) | 128 (≈ 137 µM) | 16 (≈ 17.2 µM) | 8 (≈ 8.58 µM) | 0.5 (≈ 0.536 µM) | 128 (≈ 137 µM) | 0.25 (≈ 0.268 µM) |
| CCCCCNC(=O)CCCNC(=O)O[C@H]1[C@H](C)O[C@@H](O[C@H]2[C@H](C)[C@@H](O[C@@H]3O[C@H](C)C[C@H](N(C)C)[C@H]3O)[C@](C)(OC)C[C@@H](C)C(=O)[C@H](C)[C@@H](O)[C@](C)(O)[C@@H](CC)OC(=O)[C@@H]2C)C[C@@]1(C)OC | 0.03 (≈ 0.0317 µM) | 2 (≈ 2.11 µM) | 8 (≈ 8.45 µM) | 16 (≈ 16.9 µM) | 16 (≈ 16.9 µM) | 0.5 (≈ 0.528 µM) | 32 (≈ 33.8 µM) | 0.5 (≈ 0.528 µM) |
| CC[C@H]1OC(=O)[C@H](C)[C@@H](O[C@H]2C[C@@](C)(OC)[C@@H](OC(=O)NCCCCCC(=O)NCc3ccccc3)[C@H](C)O2)[C@H](C)[C@@H](O[C@@H]2O[C@H](C)C[C@H](N(C)C)[C@H]2O)[C@](C)(OC)C[C@@H](C)C(=O)[C@H](C)[C@@H](O)[C@]1(C)O | 0.03 (≈ 0.0302 µM) | 2 (≈ 2.01 µM) | 64 (≈ 64.4 µM) | 0.25 (≈ 0.251 µM) | 8 (≈ 8.05 µM) | 0.12 (≈ 0.121 µM) | 64 (≈ 64.4 µM) | 0.5 (≈ 0.503 µM) |
| CC[C@H]1OC(=O)[C@H](C)[C@@H](O[C@H]2C[C@@](C)(OC)[C@@H](OC(=O)NCCCCCC(=O)NCc3ccc(F)cc3)[C@H](C)O2)[C@H](C)[C@@H](O[C@@H]2O[C@H](C)C[C@H](N(C)C)[C@H]2O)[C@](C)(OC)C[C@@H](C)C(=O)[C@H](C)[C@@H](O)[C@]1(C)O | 0.03 (≈ 0.0296 µM) | 0.5 (≈ 0.494 µM) | 2 (≈ 1.98 µM) | 0.25 (≈ 0.247 µM) | 32 (≈ 31.6 µM) | 0.03 (≈ 0.0296 µM) | 4 (≈ 3.95 µM) | 0.25 (≈ 0.247 µM) |
| CC[C@H]1OC(=O)[C@H](C)[C@@H](O[C@H]2C[C@@](C)(OC)[C@@H](OC(=O)NCCCCCC(=O)NCc3ccc(OC)cc3)[C@H](C)O2)[C@H](C)[C@@H](O[C@@H]2O[C@H](C)C[C@H](N(C)C)[C@H]2O)[C@](C)(OC)C[C@@H](C)C(=O)[C@H](C)[C@@H](O)[C@]1(C)O | 0.03 (≈ 0.0293 µM) | 0.5 (≈ 0.488 µM) | 64 (≈ 62.5 µM) | 32 (≈ 31.2 µM) | 1 (≈ 0.976 µM) | 0.12 (≈ 0.117 µM) | 64 (≈ 62.5 µM) | 0.12 (≈ 0.117 µM) |
| CC[C@H]1OC(=O)[C@H](C)[C@@H](O[C@H]2C[C@@](C)(OC)[C@@H](OC(=O)NCCCCCC(=O)NCCc3ccc(O)cc3)[C@H](C)O2)[C@H](C)[C@@H](O[C@@H]2O[C@H](C)C[C@H](N(C)C)[C@H]2O)[C@](C)(OC)C[C@@H](C)C(=O)[C@H](C)[C@@H](O)[C@]1(C)O | 0.06 (≈ 0.0586 µM) | 8 (≈ 7.81 µM) | 64 (≈ 62.5 µM) | 64 (≈ 62.5 µM) | 1 (≈ 0.976 µM) | 0.5 (≈ 0.488 µM) | 64 (≈ 62.5 µM) | 0.25 (≈ 0.244 µM) |
| CC[C@H]1OC(=O)[C@H](C)[C@@H](O[C@H]2C[C@@](C)(OC)[C@@H](OC(=O)NCCCCCC(=O)NCCc3ccccc3Cl)[C@H](C)O2)[C@H](C)[C@@H](O[C@@H]2O[C@H](C)C[C@H](N(C)C)[C@H]2O)[C@](C)(OC)C[C@@H](C)C(=O)[C@H](C)[C@@H](O)[C@]1(C)O | 0.03 (≈ 0.0288 µM) | 1 (≈ 0.959 µM) | 64 (≈ 61.4 µM) | 64 (≈ 61.4 µM) | 0.5 (≈ 0.48 µM) | 0.06 (≈ 0.0575 µM) | 32 (≈ 30.7 µM) | 0.25 (≈ 0.24 µM) |
| CC[C@H]1OC(=O)[C@H](C)[C@@H](O[C@H]2C[C@@](C)(OC)[C@@H](OC(=O)NCCCCCC(=O)NC3CCCCC3)[C@H](C)O2)[C@H](C)[C@@H](O[C@@H]2O[C@H](C)C[C@H](N(C)C)[C@H]2O)[C@](C)(OC)C[C@@H](C)C(=O)[C@H](C)[C@@H](O)[C@]1(C)O | 0.03 (≈ 0.0304 µM) | 1 (≈ 1.01 µM) | 128 (≈ 130 µM) | 32 (≈ 32.4 µM) | 1 (≈ 1.01 µM) | 0.12 (≈ 0.122 µM) | 128 (≈ 130 µM) | 0.25 (≈ 0.253 µM) |
| CC[C@H]1OC(=O)[C@H](C)[C@@H](O[C@H]2C[C@@](C)(OC)[C@@H](OC(=O)NCCCCCC(=O)NC(C)C)[C@H](C)O2)[C@H](C)[C@@H](O[C@@H]2O[C@H](C)C[C@H](N(C)C)[C@H]2O)[C@](C)(OC)C[C@@H](C)C(=O)[C@H](C)[C@@H](O)[C@]1(C)O | 0.06 (≈ 0.0634 µM) | 8 (≈ 8.45 µM) | 128 (≈ 135 µM) | 32 (≈ 33.8 µM) | 1 (≈ 1.06 µM) | 0.12 (≈ 0.127 µM) | 128 (≈ 135 µM) | 0.25 (≈ 0.264 µM) |
| CCCNC(=O)CCCCCNC(=O)O[C@H]1[C@H](C)O[C@@H](O[C@H]2[C@H](C)[C@@H](O[C@@H]3O[C@H](C)C[C@H](N(C)C)[C@H]3O)[C@](C)(OC)C[C@@H](C)C(=O)[C@H](C)[C@@H](O)[C@](C)(O)[C@@H](CC)OC(=O)[C@@H]2C)C[C@@]1(C)OC | 0.03 (≈ 0.0317 µM) | 4 (≈ 4.23 µM) | 128 (≈ 135 µM) | 16 (≈ 16.9 µM) | 2 (≈ 2.11 µM) | 0.03 (≈ 0.0317 µM) | 128 (≈ 135 µM) | 0.5 (≈ 0.528 µM) |
| CCCCNC(=O)CCCCCNC(=O)O[C@H]1[C@H](C)O[C@@H](O[C@H]2[C@H](C)[C@@H](O[C@@H]3O[C@H](C)C[C@H](N(C)C)[C@H]3O)[C@](C)(OC)C[C@@H](C)C(=O)[C@H](C)[C@@H](O)[C@](C)(O)[C@@H](CC)OC(=O)[C@@H]2C)C[C@@]1(C)OC | 0.06 (≈ 0.0625 µM) | 1 (≈ 1.04 µM) | 128 (≈ 133 µM) | 8 (≈ 8.33 µM) | 8 (≈ 8.33 µM) | 0.25 (≈ 0.26 µM) | 128 (≈ 133 µM) | 0.25 (≈ 0.26 µM) |
| CCCCCNC(=O)CCCCCNC(=O)O[C@H]1[C@H](C)O[C@@H](O[C@H]2[C@H](C)[C@@H](O[C@@H]3O[C@H](C)C[C@H](N(C)C)[C@H]3O)[C@](C)(OC)C[C@@H](C)C(=O)[C@H](C)[C@@H](O)[C@](C)(O)[C@@H](CC)OC(=O)[C@@H]2C)C[C@@]1(C)OC | 0.03 (≈ 0.0308 µM) | 4 (≈ 4.11 µM) | 128 (≈ 131 µM) | 16 (≈ 16.4 µM) | 8 (≈ 8.21 µM) | 0.25 (≈ 0.257 µM) | 128 (≈ 131 µM) | 0.5 (≈ 0.513 µM) |
| CC[C@H]1OC(=O)[C@H](C)[C@@H](O[C@H]2C[C@@](C)(OC)[C@@H](O)[C@H](C)O2)[C@H](C)[C@@H](O[C@@H]2O[C@H](C)C[C@H](N(C)C)[C@H]2O)[C@](C)(O)C[C@@H](C)CN(C)[C@H](C)[C@@H](O)[C@]1(C)O [AZITHROMYCIN] | 0.03 (≈ 0.0401 µM) | 4 (≈ 5.34 µM) | 128 (≈ 171 µM) | 8 (≈ 10.7 µM) | 0.12 (≈ 0.16 µM) | 0.03 (≈ 0.0401 µM) | 256 (≈ 342 µM) | 0.25 (≈ 0.334 µM) |
| CC[C@H]1OC(=O)[C@H](C)[C@@H](O[C@H]2C[C@@](C)(OC)[C@@H](O)[C@H](C)O2)[C@H](C)[C@@H](O[C@@H]2O[C@H](C)C[C@H](N(C)C)[C@H]2O)[C@](C)(OC)C[C@@H](C)C(=O)[C@H](C)[C@@H](O)[C@]1(C)O [CLARITHROMYCIN] | 0.03 (≈ 0.0401 µM) | 4 (≈ 5.35 µM) | 64 (≈ 85.6 µM) | 4 (≈ 5.35 µM) | 0.03 (≈ 0.0401 µM) | 0.03 (≈ 0.0401 µM) | 128 (≈ 171 µM) | 0.12 (≈ 0.16 µM) |
